Experimental data as given in patent US8722849B2, “Polypeptides” (Novo Nordisk A/S, priority 2011, dated 2014).
pEC50: −log10 of the molar value. Read-outs that look alike come from different tables or passages of the source. Starred links: 1 amine or outer side, 2 acyl side, 3 side chain; linkers in the order of their positions; H or OH if unused. Positions of bridges follow the written chain, without caps; N, C: chain ends. Residues, ends and D or L forms follow the SMILES beside them. *: point of attachment. C20 diacid = O=C(O)CCCCCCCCCCCCCCCCCCC(=O)*; γGlu = O=C(O)[C@H](CCC(=O)[*:2])N[*:1]

What was measured:
[1] = Assay (III) ThT fibrillation assay for physical stability; assay type: physicochemical
Procedure, shortened: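 Freshly prepared formulations, pH-adjusted, with 1 μM ThT; four or eight replicates incubated at 37 °C under 960 rpm orbital shaking. Fluorescence (ex 444/em 485 nm) read every 20 min; […]. Peptide concentration measured by RP-HPLC before and after the run.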

[2] = molecular target: T1, human calcitonin receptor (Homo sapiens, UniProt P30988); test: Assay (II)a functional CRE-luciferase assay, human calcitonin receptor; assay type: cell-based; details: Table 7; human calcitonin (CTa) receptor
T1 construct: expressed in transfected cells; host or cells: BHK570
T1 sequence (P30988 25-474): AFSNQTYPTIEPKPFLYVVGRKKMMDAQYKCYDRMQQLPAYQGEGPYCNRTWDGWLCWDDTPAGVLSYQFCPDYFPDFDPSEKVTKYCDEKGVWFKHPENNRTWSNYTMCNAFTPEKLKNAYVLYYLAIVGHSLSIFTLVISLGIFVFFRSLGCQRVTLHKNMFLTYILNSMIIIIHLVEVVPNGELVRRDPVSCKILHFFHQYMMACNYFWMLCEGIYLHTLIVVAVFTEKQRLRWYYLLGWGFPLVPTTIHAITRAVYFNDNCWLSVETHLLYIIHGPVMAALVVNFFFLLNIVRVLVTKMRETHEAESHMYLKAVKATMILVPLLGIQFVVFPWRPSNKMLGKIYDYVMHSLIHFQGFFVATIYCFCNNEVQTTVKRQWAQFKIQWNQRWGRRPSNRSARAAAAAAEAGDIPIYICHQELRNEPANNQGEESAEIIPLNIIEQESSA

[3] = Assay (IV) determination of solubility; assay type: physicochemical
Procedure, shortened: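 Polypeptide in water (~500 nmol/ml stock) was mixed 1:1 with 100 mM buffers from pH 3.0 to 8.0 (glycylglycine pH 3.0–5.0; bistrispropane pH 6.0–8.0). After 18 hours at room temperature, samples were centrifuged and the polypeptide remaining in solution was quantified by HPLC.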

[4] = molecular target: T2, human amylin receptor (amylin 3(a) receptor: human calcitonin receptor + RAMP-3) (Homo sapiens, UniProt O60896+P30988); test: Assay (II)a functional CRE-luciferase assay, human amylin receptor; assay type: cell-based; details: Table 2; BHK amylin 3(a)-receptor/CRE-luc cells
T2 construct: expressed in transfected cells; host or cells: BHK570
T2 sequence (P30988 25-474): T1 sequence (P30988 25-474)
T2 sequence (O60896 24-148 partner): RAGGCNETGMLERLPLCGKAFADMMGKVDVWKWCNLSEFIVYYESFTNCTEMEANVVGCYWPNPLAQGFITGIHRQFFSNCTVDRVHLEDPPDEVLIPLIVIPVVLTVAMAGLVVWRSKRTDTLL

ThT pH 4.0 lag time ([1]; Table 8): >45 h
ThT pH 4.0 lag time ([1]; Table 9): >45 h
ThT pH 4.0 lag time ([1]; ThT fibrillation assay): >45 h
ThT pH 4.0 lag time (h) ([1]; ThT fibrillation assay): >45 h
pEC50 [2]: 8.95
solubility at 18 h ([3]; bistrispropane buffer, pH 6, pH 6.0, read-out: Solubility pH 6.0): > 200 µM
solubility at 18 h ([3]; bistrispropane buffer, pH 6.5, pH 6.5, read-out: Solubility pH 6.5): > 200 µM
solubility at 18 h ([3]; bistrispropane buffer, pH 7, pH 7.0, 18 hours at room temperature, Table 3, read-out: Solubility pH 7.0): > 200 µM
solubility at 18 h ([3]; bistrispropane buffer, pH 7, pH 7.0, Table 8, read-out: Solubility pH 7.0): > 200 µM
solubility at 18 h ([3]; bistrispropane buffer, pH 7, pH 7.0, Table 9, read-out: Solubility pH 7.0): > 200 µM
solubility at 18 h ([3]; bistrispropane buffer, pH 7, pH 7.0, read-out: Solubility pH 7.0): > 200 µM
solubility at 18 h ([3]; bistrispropane buffer, pH 7.5, pH 7.5, Table 9, read-out: Solubility pH 7.5): > 200 µM
solubility at 18 h ([3]; bistrispropane buffer, pH 7.5, pH 7.5, read-out: Solubility pH 7.5): > 200 µM
solubility at 18 h ([3]; bistrispropane buffer, pH 8, pH 8.0, read-out: Solubility pH 8.0): > 200 µM
solubility at 18 h ([3]; glycylglycine buffer, pH 3, pH 3.0, read-out: Solubility pH 3.0): > 200 µM
solubility at 18 h ([3]; glycylglycine buffer, pH 4, pH 4.0, 18 hours at room temperature, Table 2, read-out: Solubility pH 4.0): > 200 µM
solubility at 18 h ([3]; glycylglycine buffer, pH 4, pH 4.0, read-out: Solubility pH 4.0): > 200 µM
solubility at 18 h ([3]; glycylglycine buffer, pH 5, pH 5.0, read-out: Solubility pH 5.0): > 200 µM
pEC50 [4]: 9.63
Compound: CC[C@H](C)[C@H](NC(=O)[C@@H]1CCCN1C(=O)CNC(=O)[C@H](Cc1ccccc1)NC(=O)[C@H](CC(N)=O)NC(=O)[C@H](CCC(N)=O)NC(=O)[C@H](CO)NC(=O)[C@H](CO)NC(=O)[C@H](Cc1c[nH]cn1)NC(=O)[C@H](CCCNC(=N)N)NC(=O)[C@H](CC(C)C)NC(=O)[C@H](Cc1ccccc1)NC(=O)[C@H](CCC(=O)O)NC(=O)[C@H](C)NC(=O)[C@H](CC(C)C)NC(=O)[C@H](CCCNC(=N)N)NC(=O)[C@H](CCC(N)=O)NC(=O)[C@@H](NC(=O)[C@H](C)NC(=O)[C@@H]1CSSC[C@H](NC(=O)[C@H](CCC(=O)O)NC(=O)[C@H](CCCNC(=N)N)NC(=O)[C@H](CCC(=O)O)NC(=O)CC[C@H](NC(=O)CCCCCCCCCCCCCCCCCCC(=O)O)C(=O)O)C(=O)N[C@@H](CC(N)=O)C(=O)N[C@@H]([C@@H](C)O)C(=O)N[C@@H](C)C(=O)N[C@@H]([C@@H](C)O)C(=O)N1)[C@@H](C)O)C(=O)N[C@@H](CC(C)C)C(=O)N1CCC[C@H]1C(=O)N1CCC[C@H]1C(=O)N[C@H](C(=O)N[C@@H](CC(N)=O)C(=O)N[C@H](C(=O)NCC(=O)N[C@@H](CO)C(=O)N[C@@H](CC(N)=O)C(=O)N[C@H](C(=O)N1CCC[C@H]1C(N)=O)[C@@H](C)O)C(C)C)[C@@H](C)O [Example 161, N-alpha-[(S)-4-Carboxy-4-(19-carboxynonadecanoylamino)butyryl]-Glu-Arg-[Glu1,Glu14,Arg17,Gln21,Pro37]-pramlintide] ({C20 diacid-γGlu}-ERECNTATCATQRLAEFLRHSSQNFGPILPPTNVGSNTP-NH2; disulfide 4-9 (inferred); C-terminus assumed)
